ChEMBL document CHEMBL1139278 (2009)
Values after ≈ are worked out from the molar mass of the structure shown.

How the values were obtained:
Assay type in all cases: functional
[1] = tested on: Staphylococcus aureus; assay: Antimicrobial activity against methicillin-susceptible Staphylococcus aureus Smith by NCCLS method
[2] = tested on: Staphylococcus aureus; assay: Antimicrobial activity against methicillin-resistant Staphylococcus aureus KMP9
[3] = tested on: Streptococcus pneumoniae; assay: Antimicrobial activity against penicillin-susceptible Streptococcus pneumoniae ATCC 49619 by NCCLS method
[4] = tested on: Streptococcus pneumoniae; assay: Antimicrobial activity against penicillin-resistant Streptococcus pneumoniae KT2524 by NCCLS method
[5] = tested on: Streptococcus pyogenes; assay: Antimicrobial activity against Streptococcus pyogenes ATCC 112344 by NCCLS method
[6] = tested on: Enterococcus faecium; assay: Antimicrobial activity against vancomycin-resistant Enterococcus faecium KU1778 by NCCLS method
[7] = tested on: Moraxella catarrhalis; assay: Antimicrobial activity against Moraxella catarrhalis K1209 by NCCLS method
[8] = tested on: Haemophilus influenzae; assay: Antimicrobial activity against Haemophilus influenzae TH13 by NCCLS method
[9] = tested on: Staphylococcus aureus; assay: Antimicrobial activity against methicillin-susceptible Staphylococcus aureus infected iv dosed mouse assessed as survival rate after 1 hr of infection

Row | Structure (SMILES) | MIC [1] | MIC [2] | MIC [3] | MIC [4] | MIC [5] | MIC [6] | MIC [7] | MIC [8] | ED50 [9]
1 | C=C[C@]1(C)C[C@@H](OC(=O)CN2CCN(C(=O)CCn3cnc4c(N5CCC(NCC)C5)ncnc43)CC2)[C@]2(C)[C@H](C)CC[C@]3(CCC(=O)[C@@H]32)[C@@H](C)[C@@H]1O.Cl.Cl (stereo not given in full) | 0.25 mg/L | 0.5 mg/L | 0.125 mg/L | 0.125 mg/L | 0.063 mg/L | 0.25 mg/L | 0.125 mg/L | 4 mg/L | 2.21 mg/kg
2 | C=C[C@]1(C)C[C@@H](OC(=O)CN2CCN(C(=O)CCn3cnc4c(N5CC[C@H](N)C5)ncnc43)[C@@H](C)C2)[C@]2(C)[C@H](C)CC[C@]3(CCC(=O)[C@@H]32)[C@@H](C)[C@@H]1O.Cl.Cl | 0.25 mg/L | 0.5 mg/L | 0.032 mg/L | 0.032 mg/L | 0.016 mg/L | 0.125 mg/L | 0.125 mg/L | 4 mg/L | 1.1 mg/kg
3 | C=C[C@]1(C)C[C@@H](OC(=O)CN2CCN(C(=O)CCn3cnc4c(N5CCC(N)C5)ncnc43)C[C@H]2C)[C@]2(C)[C@H](C)CC[C@]3(CCC(=O)[C@@H]32)[C@@H](C)[C@@H]1O.Cl.Cl (stereo not given in full) | 0.25 mg/L | 0.5 mg/L | 0.032 mg/L | 0.063 mg/L | 0.016 mg/L | 0.063 mg/L | 0.063 mg/L | 2 mg/L | 1.42 mg/kg
4 | C=C[C@]1(C)C[C@@H](OC(=O)CN2CC(C)N(C(=O)CCn3cnc4c(N5CCC(N)C5)ncnc43)C(C)C2)[C@]2(C)[C@H](C)CC[C@]3(CCC(=O)[C@@H]32)[C@@H](C)[C@@H]1O.Cl.Cl (stereo not given in full) | 0.125 mg/L | 0.125 mg/L | 0.016 mg/L | 0.016 mg/L | 0.016 mg/L | 0.063 mg/L | 0.063 mg/L | 4 mg/L | > 3.13 mg/kg
5 | C=C[C@]1(C)C[C@@H](OC(=O)CN2CCN(C(=O)CCn3cnc4c(N5CCC(CN)CC5)ncnc43)CC2)[C@]2(C)[C@H](C)CC[C@]3(CCC(=O)[C@@H]32)[C@@H](C)[C@@H]1O.Cl.Cl | 0.25 mg/L | 1 mg/L | 0.125 mg/L | 0.125 mg/L | 0.032 mg/L | 0.25 mg/L | 0.125 mg/L | 2 mg/L | 1.51 mg/kg
6 | C=C[C@]1(C)C[C@@H](OC(=O)CN2CCN(C(=O)CCn3cnc4c(N5CCC(CNC)C5)ncnc43)CC2)[C@]2(C)[C@H](C)CC[C@]3(CCC(=O)[C@@H]32)[C@@H](C)[C@@H]1O.Cl.Cl (stereo not given in full) | 0.25 mg/L | 2 mg/L | 0.125 mg/L | 0.125 mg/L | 0.032 mg/L | 1 mg/L | 0.5 mg/L | 4 mg/L | 1.1 mg/kg
7 | C=C[C@]1(C)C[C@@H](OC(=O)CN2CCN(C(=O)CCn3cnc4c(N5CCC(N)C5)ncnc43)C(C)(C)C2)[C@]2(C)[C@H](C)CC[C@]3(CCC(=O)[C@@H]32)[C@@H](C)[C@@H]1O.Cl.Cl (stereo not given in full) | 0.125 mg/L | 0.125 mg/L | 0.032 mg/L | 0.032 mg/L | 0.016 mg/L | 0.063 mg/L | 0.032 mg/L | 4 mg/L | 2.32 mg/kg
8 | C=C[C@]1(C)C[C@@H](OC(=O)CN2CCN(C(=O)CCn3cnc4c(N5CCC(N)C5)ncnc43)C(C)C2)[C@]2(C)[C@H](C)CC[C@]3(CCC(=O)[C@@H]32)[C@@H](C)[C@@H]1O.Cl.Cl (stereo not given in full) | 0.25 mg/L | 0.25 mg/L | 0.032 mg/L | 0.032 mg/L | 0.032 mg/L | 0.125 mg/L | 0.125 mg/L | 2 mg/L | 1.39 mg/kg
9 | C=C[C@]1(C)C[C@@H](OC(=O)CN2CCN(C(=O)CCn3cnc4c(N5CC[C@H](CNC)C5)ncnc43)[C@@H](C)C2)[C@]2(C)[C@H](C)CC[C@]3(CCC(=O)[C@@H]32)[C@@H](C)[C@@H]1O.Cl.Cl | 0.25 mg/L | 0.5 mg/L | 0.063 mg/L | 0.063 mg/L | 0.032 mg/L | 0.25 mg/L | 0.125 mg/L | 2 mg/L | 1.1 mg/kg
10 | C=C[C@]1(C)C[C@@H](OC(=O)CN2CCN(C(=O)CCn3cnc4c(N5CCC(CN)C5)ncnc43)CC2)[C@]2(C)[C@H](C)CC[C@]3(CCC(=O)[C@@H]32)[C@@H](C)[C@@H]1O.Cl.Cl (stereo not given in full) | 0.25 mg/L | 2 mg/L | 0.063 mg/L | 0.125 mg/L | 0.032 mg/L | 1 mg/L | 0.5 mg/L | 4 mg/L | 1.21 mg/kg
11 | C=C[C@]1(C)C[C@@H](OC(=O)CN2CCN(C(=O)CCn3cnc4c(N5CCC(NC)C5)ncnc43)CC2)[C@]2(C)[C@H](C)CC[C@]3(CCC(=O)[C@@H]32)[C@@H](C)[C@@H]1O.Cl (stereo not given in full) | 0.25 mg/L | 1 mg/L | 0.063 mg/L | 0.125 mg/L | 0.032 mg/L | 0.25 mg/L | 0.25 mg/L | 4 mg/L | 1.3 mg/kg
12 | C=C[C@]1(C)C[C@@H](OC(=O)CN2CCN(C(=O)CCn3cnc4c(N5CCC(N)C5)ncnc43)[C@H](C)C2)[C@]2(C)[C@H](C)CC[C@]3(CCC(=O)[C@@H]32)[C@@H](C)[C@@H]1O.Cl.Cl (stereo not given in full) | 0.25 mg/L | 0.5 mg/L | 0.125 mg/L | 0.125 mg/L | 0.063 mg/L | 0.25 mg/L | 0.25 mg/L | 8 mg/L | 2.21 mg/kg
13 | C=C[C@]1(C)C[C@@H](OC(=O)CN2CCN(C(=O)CCn3cnc4c(N5CCC(N)C5)ncnc43)[C@@H](C)C2)[C@]2(C)[C@H](C)CC[C@]3(CCC(=O)[C@@H]32)[C@@H](C)[C@@H]1O.Cl.Cl (stereo not given in full) | 0.125 mg/L | 0.25 mg/L | 0.032 mg/L | 0.063 mg/L | 0.032 mg/L | 0.125 mg/L | 0.125 mg/L | 2 mg/L | 1.47 mg/kg
14 | C=C[C@]1(C)C[C@@H](OC(=O)CN2CCN(C(=O)CCn3cnc4c(N5CCC(N)CC5)ncnc43)CC2)[C@]2(C)[C@H](C)CC[C@]3(CCC(=O)[C@@H]32)[C@@H](C)[C@@H]1O.Cl.Cl | 0.25 mg/L | 1 mg/L | 0.125 mg/L | 0.125 mg/L | 0.032 mg/L | 0.25 mg/L | 0.125 mg/L | 2 mg/L | 0.97 mg/kg
15 | C=C[C@]1(C)C[C@@H](OC(=O)CN2CCN(C(=O)CCn3cnc4c(N5CCC(N(C)C)C5)ncnc43)CC2)[C@]2(C)[C@H](C)CC[C@]3(CCC(=O)[C@@H]32)[C@@H](C)[C@@H]1O.Cl.Cl (stereo not given in full) | 0.25 mg/L | 0.25 mg/L | 0.125 mg/L | 0.063 mg/L | 0.063 mg/L | 0.125 mg/L | 0.125 mg/L | 4 mg/L | 2.94 mg/kg
16 | C=C[C@]1(C)C[C@@H](OC(=O)CN2CCN(C(=O)CCn3cnc4c(N5CCNCC5)ncnc43)CC2)[C@]2(C)[C@H](C)CC[C@]3(CCC(=O)[C@@H]32)[C@@H](C)[C@@H]1O.Cl.Cl | 0.125 mg/L | 0.25 mg/L | 0.063 mg/L | 0.063 mg/L | 0.032 mg/L | 0.063 mg/L | 0.063 mg/L | 2 mg/L | 1.65 mg/kg
17 | CN[C@H](CC(C)C)C(=O)N[C@H]1C(=O)N[C@@H](CC(N)=O)C(=O)N[C@H]2C(=O)N[C@H]3C(=O)N[C@H](C(=O)N[C@H](C(=O)O)c4cc(O)cc(O)c4-c4cc3ccc4O)[C@H](O)c3ccc(c(Cl)c3)Oc3cc2cc(c3O[C@@H]2O[C@H](CO)[C@@H](O)[C@H](O)[C@H]2O[C@H]2C[C@](C)(N)[C@H](O)[C@H](C)O2)Oc2ccc(cc2Cl)[C@H]1O [VANCOMYCIN] |  |  | 0.25 mg/L (≈ 0.173 µM) | 0.5 mg/L (≈ 0.345 µM) |  | > 128 mg/L | 64 mg/L (≈ 44.2 µM) | > 128 mg/L | 0.88 mg/kg
